The assay addresses T1, AtFHA2 (Arabidopsis thaliana, UniProt Q9SFV2).
T1 construct: gene FHA2; recombinant AtFHA2 (AT3G07220.1)
T1 sequence (Q9SFV2 2-320): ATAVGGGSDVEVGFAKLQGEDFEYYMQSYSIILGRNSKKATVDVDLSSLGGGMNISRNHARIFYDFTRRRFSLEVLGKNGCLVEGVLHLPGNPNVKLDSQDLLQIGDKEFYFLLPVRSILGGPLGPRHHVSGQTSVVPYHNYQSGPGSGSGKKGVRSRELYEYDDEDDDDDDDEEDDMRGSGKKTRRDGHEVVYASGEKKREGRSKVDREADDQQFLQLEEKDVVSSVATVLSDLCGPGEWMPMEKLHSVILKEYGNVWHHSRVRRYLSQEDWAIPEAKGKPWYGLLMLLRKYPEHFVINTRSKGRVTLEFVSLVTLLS
The experiment in a line: isothermal titration calorimetry (ITC) with recombinant protein. It is filed as binding. (ITC needs no label: the signal is the heat of the interaction.)

Two compounds from article PMC13159116, “Affinity‐Based Interactome Mapping of Inositol Pyrophosphates Reveals 4/6‐PP‐InsP5‐Binding Proteins in Plants” (Advanced Science, 2026) can be followed below.

In general, Kd refers to the concentration at which binding is half-saturated.

Consider `O=P(O)(O)O[C@H]1[C@H](OP(=O)(O)O)[C@@H](OP(=O)(O)O)[C@H](OP(=O)(O)OP(=O)(O)O)[C@@H](OP(=O)(O)O)[C@H]1OP(=O)(O)O` [compound 4, 4-PP-InsP5], for which the Kd was 4.9 ± 2.24 µM.

As for `O=P(O)(O)O[C@H]1[C@H](OP(=O)(O)O)[C@@H](OP(=O)(O)O)[C@H](OP(=O)(O)O)[C@@H](OP(=O)(O)O)[C@H]1OP(=O)(O)O` [compound 6, InsP6], the Kd is more than 100 µM.
